Source: patent publication US20060035848A1, “Broad-spectrum inhibitor of viruses in the Flaviviridae family” (ZymeTx, Inc., priority 2004, published 2006)
In brackets after ≈: the same amount, converted by molar mass. Where two headings read alike, the source gives them in different places.

Experiments:
[1] = tested on: Yellow fever virus (YFV), 17D strain; assay: microbe, parasite or virus in culture; type: cell-based; settings: Vero
WNV [2] = settings: Morrey et al., 2002; cited from earlier work
[3] = tested on: Banzi virus (BV), H 336 strain; assay: microbe, parasite or virus in culture; type: cell-based; settings: Vero
in vitro [4] = settings: bovine
in vitro [5] = settings: African green monkey
[6] = tested on: Bovine viral diarrhea virus (BVDV), TN131 strain; assay: microbe, parasite or virus in culture; type: cell-based; settings: Bovine viral diarrhea virus isolates and strains
in vitro [7] = settings: African green monkey; remark: listed apart in the source
[8] = Cytotoxicity in toxicity control wells of the WNV tests; type: cell-based; settings: African green monkey, Vero 76 cells (kidney), uninfected toxicity control wells
WNV [9] = assay: Inhibition of CPE assay at time points after initiation (Table 2); type: cell-based, West Nile virus; settings: for EC50: West Nile virus, 144 h, read-out: Inhibition of CPE assay EC50
[10] = tested on: West Nile Virus ATCC VR-82 (strain B956); assay: CPE inhibition assay against West Nile virus ATCC VR-82 (visual and neutral red reading); type: cell-based; settings: Vero
GAPDH mRNA = assay: Cytotoxicity by GAPDH mRNA in HCV replicon-containing cells; settings: FIG. 1B
WNV [11] = assay: Virus yield reduction (VYR) assay, West Nile virus; type: cell-based; settings: for EC90: West Nile virus, read-out: Virus yield reduction assay EC90
[12] = tested on: West Nile virus New York Isolate; assay: CPE inhibition assay against West Nile virus New York isolate in Vero cells; type: cell-based
[13] = ATCC VR-82 columns, NR (Neutral red)
[14] = New York Isolate columns, NR (Neutral red)
[15] = New York Isolate columns, Visual
[16] = 144 h, New York Isolate, Visual, Vero cells, 6 days post-virus exposure
[17] = New York Isolate, NR (Neutral red), Vero cells

NC(=O)c1ncn([C@@H]2O[C@H](CO)[C@@H](O)[C@H]2O)n1 [Ribavirin, reference compound]
EC50 [1]: 32 mg/L (≈ 131 µM)
activity against WNV in tissue culture (WNV [2]): poor activity
EC50 [3]: 60 mg/L (≈ 246 µM)
CC50 (in vitro [4]): > 100 mg/L
CC50 (in vitro [5]): > 100 mg/L
EC50 [6]: 5 mg/L (≈ 20.5 µM)
CC50 (in vitro [7]): > 100 mg/L

Nc1nc(=O)n2ccn([C@@H]3O[C@H](CO)[C@@H](O)[C@H]3O)c2n1 [ZX-2401, 2-amino-8-(β-D-ribofuranosyl) imidazo [1,2-a]-s-triazine-4-one]
EC50 [1]: 10 mg/L (≈ 35.3 µM)
CC50 at 6 days [8, 13]: > 100 mg/L
CC50 at 6 days ([8]; ATCC VR-82 columns, Visual): > 100 mg/L
CC50 at 6 days [8, 14]: > 100 mg/L
CC50 at 6 days [8, 15]: > 100 mg/L
EC50 [3]: 5 mg/L (≈ 17.7 µM)
CC50 (in vitro [4]): > 100 mg/L
EC50 (WNV [9]): 15 mg/L (≈ 53 µM)
EC50 [10]: 3 mg/L (≈ 10.6 µM)
EC50 ([10]; 144 h): < 4.6 mg/L
Toxicity by visual inspection of treated uninfected cultures (Vero cells): No toxicity
CC50 (in vitro [5]): > 100 mg/L
toxicity as measured by GAPDH mRNA levels (GAPDH mRNA): no toxicity
EC50 [6]: 0.6 mg/L (≈ 2.12 µM)
CC50 (in vitro [7]): > 100 mg/L
EC90 (WNV [11]; 48 h): 3.3 mg/L (≈ 11.7 µM)
EC90 (WNV [11]; 144 h): 40 mg/L (≈ 141 µM)
EC50 [12, 16]: 9.5 mg/L (≈ 33.5 µM)
EC50 ([12]; MOI 1.6 × 10^−3, New York strain in Vero cells): 20 mg/L (≈ 70.6 µM)
EC50 ([12]; MOI 1.6 × 10^−4, New York strain in Vero cells): 12 mg/L (≈ 42.4 µM)
EC50 ([12]; MOI 5 × 10^−4, New York strain in Vero cells): 15 mg/L (≈ 53 µM)
EC50 ([12]; MOI 5 × 10^−5 (5 CCID50), New York strain in Vero cells): 15 mg/L (≈ 53 µM)
EC50 [12, 17]: 8 mg/L (≈ 28.2 µM)

O=c1cnn([C@@H]2O[C@H](CO)[C@@H](O)[C@H]2O)c(=O)[nH]1 [6-aza-U, 6-azauridine, reference compound]
CC50 at 6 days [8, 13]: > 100 mg/L
CC50 at 6 days ([8]; ATCC VR-82 columns, Visual): 85 mg/L (≈ 347 µM)
CC50 at 6 days [8, 14]: > 100 mg/L
CC50 at 6 days [8, 15]: 85 mg/L (≈ 347 µM)
CPE observed (WNV [9]; 8 days post-virus initiation, cells treated with any concentration): 100%
EC50 (WNV [9]): 3.1 mg/L (≈ 12.6 µM)
EC50 [10]: 5 mg/L (≈ 20.4 µM)
EC50 ([10]; 144 h): 22 mg/L (≈ 89.7 µM)
EC90 (WNV [11]; 48 h): 1.6 mg/L (≈ 6.53 µM)
EC90 (WNV [11]; 144 h): 431 mg/L (≈ 1760 µM)
Effect of addition of fresh compound every 2 days on VYR (WNV [11]; day 6, compared to no addition of fresh compound): did not improve
EC50 [12, 16]: 0.9 mg/L (≈ 3.67 µM)
EC50 [12, 17]: 1.6 mg/L (≈ 6.53 µM)
